According to patent publication US7691563B2, “Method for alleviating pain using sphingosine-1-phosphate and related compounds, and assays for identifying such compounds” (Sanofi-Aventis Pharma GmbH, priority 2003, dated 2010):
Several values for one entry are separate records, joined by “and”; a condition that tells them apart may be missing. Identical values can stand only once.

Key:
[1] = tested on: PAM; assay: PAM translocation to the plasma membrane in HeLa cells (immunofluorescence); type: cell-based, human
Method: Panel B: HeLa cells were treated with 10% fetal bovine serum for different times and stained with anti-PAM antibodies to monitor the subcellular localization.
Panel B: HeLa cells were treated with 0.5 μM S1P for 30 minutes and stained with anti-PAM antibodies to monitor the subcellular localization.
Panel C: Time dependence of PAM translocation in HeLa cells. Serum-starved HeLa cells were treated with 0.5 μM S1P for different times and stained with anti-PAM antibodies to monitor the subcellular localization.
Panel D: HeLa cells were treated with 0.5 μM S1P for 20 minutes and stained with anti-PAM antibodies to monitor the subcellular localization. Prior S1P-treatment were the cells incubated for 24 hours with […] pertussis toxin (PTX), for 20 minutes with, 1 μM GF109203X, 10 μM U0126, BAPTA-AM, U73122 or Ro31-223.
To monitor distribution of PAM in HeLa cells, cells were grown on glass coverslips in DMEM with 10% FBS and 1% penicillin/streptoMycin (Gibco, Karlsruhe, Germany). To visualize translocation of PAM HeLa, cells were serum starved overnight and subsequently treated with 10% serum for 2 hours. Wherever indicated, cells were preincubated for 30 minutes in the presence of different concentrations of inhibitors. The cells were fixed in 4% paraformaldehyde (Sigma, Taufkirchen, Germany) in PBS for 10 minutes and then permeablized in 0.1% Triton X-100 for another 5 minutes. The coverslips were blocked for 1 hour in 3% BSA in PBS and then incubated for 1 hour with anti-PAM antibody (1:50 dilution). This was followed by incubation with FITC-labeled goat anti-rabbit antibody in PBS containing 3% BSA. The cells were then washed with PBS and mounted. For the analysis confocal (BioRad, Hercules, Calif.) and regular flourescence microscopes (Nikon, Duesseldorf, Germany) were used.

[2] = tested on: cAMP; assay: cAMP accumulation in HeLa cells; type: cell-based, human; conditions: 0.5 μM S1P
Method: Panel A: cAMP accumulation in HeLa cells was measured in the absence and presence of serum as described above. The mean ±SEM (Standard error of the mean) of three determinations is shown. Panel A: cAMP accumulation in HeLa cells was measured in the absence (black bars) and presence (grey bars) of 0.5 μM S1P at varying times as described in Materials and Methods section. The mean ±SEM of three determinations is shown. Spinal cord samples were sonicated and centrifugeged at 4° C. for 20 minutes with 18.000×g. The supernatent was used for cAMP measurements. The cAMP accumulation in the cells was determined by the cAMP Detection Kit (Assay Design Inc, Ann Arbor, Mich.) according to the manufacturers instructions.

[3] = tested on: adult rats; assay: Formalin test after intrathecal application of S1P; type: in vivo, rat; conditions: 20 μl of 10 μM S1P intrathecal 15 minutes prior to formalin; 20 to 35 minutes after formalin; versus PBS/DMSO
Method: FIG. 24: Pain behaviour of adult rats in the formalin assay with and without application of S1P over a period of 60 minutes. 20 μl of 10 μM S1P or 20 μl PBS/DMSO were given to adult rats by intrathecal application 15 minutes prior to formalin injection. After formalin injection, flinches were counted in 5 minute intervals over a time-period of 60 minutes. The mean of six animal experiments+SEM is shown.
To determine the analgesic effect of S1P, S1P was delivered to the spinal chord by intrathecal application.
Rats were anesthetized with ketamine (60 mg/kg i.p.) and midazolam (0.5-1 mg/kg i.p.). The skin was incised above the vertebral column from vertebrae Th13 up to L3. Muscle tissue around L2-3 was cleared away. The processus spinosus of L3 was removed and a laminectomy was done at L2. Polyethylene catheters (ID 0.28 mm, OD 0.61 mm) were then inserted into the peridural space so that the tip of the catheter reached Th9-10. […]
Within 15 min after stopping the infusion the formalin test was performed. […] Flinches were counted in one minute intervals up to 60 min starting right after formalin injection. […]
20 μl of 10 μM S1P or 20 μl PBS/DMSO were given to adult rats by intrathecal application 15 minutes prior to the formalin injection. Then, flinches were counted in 5 minute intervals over a period of 60 minutes.

**Q.** Which results are given for `CCCCCCCCCCCCC/C=C/[C@@H](O)[C@@H](N)COP(=O)(O)O` [S1P, Sphingosine-1-Phosphate]?
**A.** PAM translocation among candidate substances for the serum factor ([1]; HeLa cells): induced PAM translocation; cells with PAM translocation to the plasma membrane ([1]; HeLa cells treated with 0.1-5 μM S1P): 70-90% and 80%; time at which PAM appeared at the plasma membrane ([1]; HeLa cells, 500 nM S1P): 10 min; time at which PAM started to disappear from the plasma membrane ([1]; HeLa cells, 500 nM S1P): 1 h; time of PAM translocation to the plasma membrane ([1]; HeLa cells, 0.1-5 μM S1P): 10 to 30 min; intracellular cAMP content [2]: reduced; number of nociceptive responses (flinches), phase 2A [3]: significant decrease
